The subject of series [1] is SMN2 minigene mRNA (SMN2-A minigene) in HEK293H cells. The series is described as follows: SMN2 minigene mRNA splicing RT-qPCR assay in cultured cells. It counts as cell-based, human. The note with it: Homo sapiens, HEK293-H; concentration increasing full length SMN2 mRNA 1.5-fold relative to vehicle-treated cells; HEK293H cells with SMN2-A minigene, 24 hours, 7-point concentration data; read-out: EC1.5x for production of full length SMN2 mRNA. The essentials: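 Cells are seeded, left to attach 4-6 h, then dosed with test compound across seven concentrations and incubated 24 h. Lysates undergo RT-qPCR with primers/probe specific to the exon 7-containing minigene transcript, co-amplified with GAPDH. Fold change over vehicle is calculated, and EC1.5× marks the 1.5-fold point.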
Background: Real-time PCR tracks product formation cycle by cycle.

In series [2] the test system is Smn protein in SMA patient fibroblast cells (GM03813). The series can be described thus: Smn protein assay in cultured cells (SMN HTRF). The note with it: SMA patient fibroblast cells, 48 hours; for EC1.5x for Smn protein expression: 7-point concentration curve, SMN HTRF, concentration producing 1.5 times Smn protein vs DMSO vehicle control; for maximum fold (Fold) increase of Smn protein: 7-point concentration data, fold relative to vehicle control. The class given is cell-based, human. Put shortly:
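Patient-derived SMA fibroblasts are plated, given compound for 48 h, then lysed in RIPA buffer with protease inhibitors. Lysate Smn is detected by an anti-SMN d2/kryptate HTRF pair incubated overnight. The normalized ΔF is divided by the vehicle ΔF to give fold change, from which EC1.5× and maximum fold are taken.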

Broadly, the melting point is the temperature, or range, at which the solid turns liquid. With `CCc1nc(C)cn2nc(-c3cc(=O)n4cc(C5CCN(CCF)CC5)ccc4n3)cc12` [Compound 668, 2-(4-ethyl-6-methylpyrazolo[1,5-a]pyrazin-2-yl)-7-[1-(2-fluoroethyl)piperidin-4-yl]-4H-pyrido[1,2-a]pyrimidin-4-one], the melting point lay within 206 to 208 °C. Moreover, the EC (1.5-fold increase) in series [1] was under 0.1 µM. For the same molecule, in series [2], the “EC1.5x for Smn protein expression” value is “**** (an EC1.5x≤0.3 μM is indicated by four stars (****))” and the “maximum fold (Fold) increase of Smn protein” value (“maximum fold (Fold) increase” for short) is “***** (a fold increase >1.65 is indicated by five stars (*****))”.
For `CCc1nc(C)cn2nc(-c3cc(=O)n4cc(C5CCN(CCCF)CC5)ccc4n3)cc12` [Compound 669, 2-(4-ethyl-6-methylpyrazolo[1,5-a]pyrazin-2-yl)-7-[1-(3-fluoropropyl)piperidin-4-yl]-4H-pyrido[1,2-a]pyrimidin-4-one], in that order: 216 to 218 °C, under 0.1 µM, “**** (an EC1.5x≤0.3 μM is indicated by four stars (****))” and “***** (a fold increase >1.65 is indicated by five stars (*****))”.
`Cc1cn2nc(-c3cc(=O)n4cc(C5CCNCC5)cc(C)c4n3)cc2c(C)n1` [Compound 671, 2-(4,6-dimethylpyrazolo[1,5-a]pyrazin-2-yl)-9-methyl-7-(piperidin-4-yl)-4H-pyrido[1,2-a]pyrimidin-4-one]: the melting point fell in the range of 247 to 255 °C. In addition, the EC (1.5-fold increase) in series [1] is under 0.1 µM. Moreover, in series [2], the “EC1.5x for Smn protein expression” value was “**** (an EC1.5x≤0.3 μM is indicated by four stars (****))” and the “maximum fold (Fold) increase” value is “***** (a fold increase >1.65 is indicated by five stars (*****))”.
In the case of `Cc1cn2nc(-c3cc(=O)n4cc(N5CCN(CCO)[C@H](C)C5)cc(C)c4n3)cc2c(C)n1` [Compound 673, 2-(4,6-dimethylpyrazolo[1,5-a]pyrazin-2-yl)-7-[(3R)-4-(2-hydroxyethyl)-3-methylpiperazin-1-yl]-9-methyl-4H-pyrido[1,2-a]pyrimidin-4-one], the melting point lay within 273 to 281 °C. Also, in series [1], the EC (1.5-fold increase) is under 0.1 µM. Also, in series [2], the “EC1.5x for Smn protein expression” value is recorded as “**** (an EC1.5x≤0.3 μM is indicated by four stars (****))”; the “maximum fold (Fold) increase” value was “**** (a fold increase between >1.5 and ≤1.65 is indicated by four stars (****))”.
In turn, `Cc1cn2cc(-c3cc(=O)n4cc(N5CCN(C)CC5)ccc4n3)cc(CO)c2n1` [Compound 677, 2-[8-(hydroxymethyl)-2-methylimidazo[1,2-a]pyridin-6-yl]-7-(4-methylpiperazin-1-yl)-4H-pyrido[1,2-a]pyrimidin-4-one] showed a melting point of 262 to 266 °C. The EC (1.5-fold increase) in series [1] is under 0.1 µM. In series [2], the “EC1.5x for Smn protein expression” value is “*** (an EC1.5× between >0.3 μM and ≤1 μM is indicated by three stars (***))”; the “maximum fold (Fold) increase” value is “***** (a fold increase >1.65 is indicated by five stars (*****))”.
In the case of `CCN1CCN(c2ccc3nc(-c4cc(CO)c5nc(C)cn5c4)cc(=O)n3c2)CC1` [Compound 678, 7-(4-ethylpiperazin-1-yl)-2-[8-(hydroxymethyl)-2-methylimidazo[1,2-a]pyridin-6-yl]-4H-pyrido[1,2-a]pyrimidin-4-one], the melting point is 258 to 262 °C. Also, in series [1], the EC (1.5-fold increase) is under 0.1 µM. Also, in series [2], the “EC1.5x for Smn protein expression” value is recorded as “**** (an EC1.5x≤0.3 μM is indicated by four stars (****))” and the “maximum fold (Fold) increase” value was “***** (a fold increase >1.65 is indicated by five stars (*****))”.
For `CCc1nc(C)cn2nc(-c3cc(=O)n4cc(C5CCN(C(C)C)CC5)ccc4n3)cc12` [Compound 679, 2-(4-ethyl-6-methylpyrazolo[1,5-a]pyrazin-2-yl)-7-[1-(propan-2-yl)piperidin-4-yl]-4H-pyrido[1,2-a]pyrimidin-4-one], in that order: 228 to 230 °C, under 0.1 µM, “**** (an EC1.5x≤0.3 μM is indicated by four stars (****))” and “***** (a fold increase >1.65 is indicated by five stars (*****))”.
On the same counts, the results for `CCc1nc(C)cn2nc(-c3cc(=O)n4cc(C5CCN(C6CC6)CC5)ccc4n3)cc12` [Compound 680, 7-(1-cyclopropylpiperidin-4-yl)-2-(4-ethyl-6-methylpyrazolo[1,5-a]pyrazin-2-yl)-4H-pyrido[1,2-a]pyrimidin-4-one] are 196 to 199 °C, under 0.1 µM, “**** (an EC1.5x≤0.3 μM is indicated by four stars (****))” and “***** (a fold increase >1.65 is indicated by five stars (*****))”.
On the same counts, the results for `CCc1nc(C)cn2nc(-c3cc(=O)n4cc(C5CCN(C6CCC6)CC5)ccc4n3)cc12` [Compound 681, 7-(1-cyclobutylpiperidin-4-yl)-2-(4-ethyl-6-methylpyrazolo[1,5-a]pyrazin-2-yl)-4H-pyrido[1,2-a]pyrimidin-4-one] are 227 to 229 °C, under 0.1 µM, “**** (an EC1.5x≤0.3 μM is indicated by four stars (****))” and “***** (a fold increase >1.65 is indicated by five stars (*****))”.
Molecule `CCc1nc(C)cn2nc(-c3cc(=O)n4cc(C5CCN(C6COC6)CC5)ccc4n3)cc12` [Compound 682, 2-(4-ethyl-6-methylpyrazolo[1,5-a]pyrazin-2-yl)-7-[1-(oxetan-3-yl)piperidin-4-yl]-4H-pyrido[1,2-a]pyrimidin-4-one] came in with a melting point of 190 to 192 °C. For the same molecule, the EC (1.5-fold increase) in series [1] is 0.3 to 1 µM. Besides, in series [2], the “EC1.5x for Smn protein expression” value is “** (an EC1.5× between >1 μM and ≤3 μM is indicated by two stars (**))”; the “maximum fold (Fold) increase” value is “***** (a fold increase >1.65 is indicated by five stars (*****))”.
`Cc1cn2nc(-c3cc(=O)n4cc(N5CCNCC5)ccc4n3)cc2c(C2CC2)n1` [Compound 683, 2-(4-cyclopropyl-6-methylpyrazolo[1,5-a]pyrazin-2-yl)-7-(piperazin-1-yl)-4H-pyrido[1,2-a]pyrimidin-4-one] yielded a melting point of 226 to 229 °C. Further, the EC (1.5-fold increase) in series [1] is under 0.1 µM. In addition, in series [2], the “EC1.5x for Smn protein expression” value is “*** (an EC1.5× between >0.3 μM and ≤1 μM is indicated by three stars (***))”; the “maximum fold (Fold) increase” value is given as “***** (a fold increase >1.65 is indicated by five stars (*****))”.
Take `Cc1cn2nc(-c3cc(=O)n4cc(N5CCN(C)CC5)ccc4n3)cc2c(C2CC2)n1` [Compound 684, 2-(4-cyclopropyl-6-methylpyrazolo[1,5-a]pyrazin-2-yl)-7-(4-methylpiperazin-1-yl)-4H-pyrido[1,2-a]pyrimidin-4-one]: the melting point fell in the range of 238 to 240 °C. The EC (1.5-fold increase) in series [1] was 0.1 to 0.3 µM. In series [2], the “EC1.5x for Smn protein expression” value is “*** (an EC1.5× between >0.3 μM and ≤1 μM is indicated by three stars (***))”; the “maximum fold (Fold) increase” value is “***** (a fold increase >1.65 is indicated by five stars (*****))”.

The record behind these values is patent publication US11753407B2, “Compounds for treating spinal muscular atrophy” (PTC Therapeutics, Inc., priority 2012, dated 2023).
